US20060019907A1, “Guggulsterone: an inhibitor of nuclear factor - kappaB and IkappaBalpha kinase activation and uses thereof” (Research Development Foundation, priority 2004, published 2006)

Experiments:
COX2 promoter = experiment: COX-2 promoter-dependent reporter luciferase gene expression; type: cell-based, human; conditions: 0.1 nM TNF 24 hours
Description: COX-2 Promoter-dependent Reporter Luciferase Gene Expression: COX-2 promoter activity was examined as described elsewhere (Shishodia et al., 2003). To further determine the effect of guggulsterone on COX-2 promoter, […] cells were seeded at a concentration of 1.5×10^5 cells per well in six-well plates. After overnight culture, the cells in each well were transfected with 2 μg DNA consisting of COX-2 promoter-luciferase reporter plasmid, along with 6 μl of LIPOFECTAMINETM 2000 (Life Technologies, Inc.) according to the manufacturer's protocol. The COX-2 promoter (-375 to +59), amplified from human genomic DNA by using the primers [NT] (sense) (SEQ ID NO:3) and [NT] (antisense) (SEQ ID NO:4), was provided by Dr. Xiao-Chun Xu (M.D. Anderson Cancer Center). After a 6 hour exposure to the transfection mixture, the cells were incubated in medium containing guggulsterone for 12 hours. The cells were exposed to TNF (0.1 nM) for 24 hours and then harvested. Luciferase activity is measured by using the Promega luciferase assay system according to the manufacturer's protocol and detected by using […] 2010 (Analytical Luminescence Laboratory, San Diego, Calif.).

[1] = target: farnesoid X receptor (FXR) (Homo sapiens, UniProt Q96RI1); conditions: cited from earlier work
IKK = experiment: Direct inhibition of immunoprecipitated IKK, kinase assay; type: biochemical, human; conditions: 50 μM; immune complex treated 30 min at 30° C.
Description: IKK Assay: To determine the effect of guggulsterone on TNF-induced IKK activation, IKK was analyzed by a method essentially as described previously (Shishodia et al., 2003). Briefly, IKK complex was precipitated from whole-cell extracts with antibody to IKKα and IKKβ, assayed in kinase assay using GST-IκBα (1-54) as a substrate, and resolved on 10% polyacrylamide gel; the radioactive bands were visualized using a PHOSPHORIMAGER™. To determine the total amounts of IKKα and IKKβ in each sample, 30 μg of the whole-cell extract protein was resolved on a 7.5% polyacrylamide gel and analyzed by Western blot using antibody against IKKα and IKKβ.

PARP = PARP cleavage assay, TNF plus guggulsterone; type: cell-based, human; conditions: KBM-5, serum starved 24 hours; TNF in combination with guggulsterone
Description: PARP cleavage assay: For detection of cleavage products of PARP, whole-cell extracts were prepared by subjecting the guggulsterone-treated cells to lysis in lysis buffer (20 mM Tris, pH 7.4; 250 mM NaCI; 2 mM EDTA, pH 8.0; 0.1% Triton-X 100; 0.01 μg/ml aprotinin; 0.005 μg/ml leupeptin; 0.4 mM PMSF; and 4 mM NaVO4). Lysates will be spun at 14000 rpm for 10 min to remove insoluble material, resolved by 10% SDS PAGE, and probed with PARP antibodies. PARP is cleaved from the 116-kDa intact protein into 85-kDa and […] peptide products. To detect cleavage products of procaspase-3 and procaspase-9, whole-cell extracts will be resolved by 10% SDS PAGE and probed with appropriate antibodies.

p65 = experiment: TNF-induced phosphorylation and nuclear translocation of p65; type: cell-based, human; conditions: H1299, 50 μM, 4 hours, 0.1 nM TNF
Description: Western Blot Analysis: To determine the effect of guggulsterone on TNF-dependent IκBα phosphorylation, IκBα degradation, p65 translocation and p65 phosphorylation, cytoplasmic extracts were prepared as previously described (Majumdar et al., 2001) from H1299 (2×10^6/ml) pretreated with 50 μM guggulsterone for 4 h and then exposed to 0.1 nM TNF for various times. Thirty micrograms of cytoplasmic protein was resolved on 10% SDS-PAGE gel, transferred to a nitrocellulose membrane, blocked with 5% non-fat milk, and probed with specific antibody against IκBα, posphorylated IκBα, p65 and phosphorylated p65. To determine the expression of cyclin D1, COX-2, MMP-9, clAP-1, xlAP, TRAF1, Bcl-2, Bfl-1, cFLIP, and survivin, whole-cell extracts were prepared from treated cells (2×10^6 cells in 2 ml medium), 30-50 μg protein was resolved on SDS-PAGE gel and probed by Western blot with specific antibodies as per manufacturer's recommended protocol. The blots were washed, exposed to HRP-conjugated secondary antibodies for 1 hour, and finally detected by ECL reagent (Amersham Pharmacia Biotech.). The bands were quantitated using a Personal Densitometer Scan v1.30 using IMAGEQUANT™ software version 3.3 (Molecular Dynamics).
Immunolocalization of NF-κB p65: The effect of guggulsterone on […] nuclear translocation of p65 was examined using an immunocytochemical method as described previously (Bharti et al., 2003). Stained slides were mounted with mounting medium (Sigma Chemical) and analyzed under an epifluorescence microscope (Labophot-2; Nikon, Tokyo, Japan). Images were captured using a PHOTOMETRICS COOLSNAP CF™ color camera (Nikon, Lewisville, Tex.) and METAMORPH™ version 4.6.5 software (Universal Imaging, Downingtown, Pa.).

NF-κB = experiment: Constitutively active NF-κB by EMSA in U266 and MDA 1986 tumor cells; type: cell-based, human; conditions: 50 μM, 4 hours
Description: NF-κB Activation: To determine NF-κB activation, EMSA was carried out as previously described (Chaturvedi et al., 2000). Briefly, nuclear extracts prepared from cells (2×10^6/ml) treated with TNF were incubated with ^32P-end-labeled 45-mer double-stranded NF-κB oligonucleotide (8 μg of protein with […] of DNA) from the human immunodeficiency virus long terminal repeat, 5′-[…] GGCGTGG-3′ (SEQ ID NO:1) (boldface indicates NF-κB binding sites), for 15 min at 37° C. The DNA-protein complex formed was separated from free oligonucleotide on 6.6% native polyacrylamide gels. A double-stranded mutated oligonucleotide, 5′-[…]-3′ (SEQ ID NO:2), was used to examine the specificity of binding of NF-κB to the DNA. The specificity of binding was also examined by competition with the unlabeled oligonucleotide. For supershift assays, nuclear extracts prepared from TNF-treated cells were incubated with antibodies against either the p50 or the p65 subunit of NF-κB for 30 min at room temperature before the complex was analyzed by EMSA. The dried gels were visualized, and radioactive bands were quantitated using a PHOSPHORIMAGER™ (Molecular Dynamics, Sunnyvale, Calif.) using IMAGEQUANT™ software.

Sequence of farnesoid X receptor (FXR) (Q96RI1 whole entry, species assumed): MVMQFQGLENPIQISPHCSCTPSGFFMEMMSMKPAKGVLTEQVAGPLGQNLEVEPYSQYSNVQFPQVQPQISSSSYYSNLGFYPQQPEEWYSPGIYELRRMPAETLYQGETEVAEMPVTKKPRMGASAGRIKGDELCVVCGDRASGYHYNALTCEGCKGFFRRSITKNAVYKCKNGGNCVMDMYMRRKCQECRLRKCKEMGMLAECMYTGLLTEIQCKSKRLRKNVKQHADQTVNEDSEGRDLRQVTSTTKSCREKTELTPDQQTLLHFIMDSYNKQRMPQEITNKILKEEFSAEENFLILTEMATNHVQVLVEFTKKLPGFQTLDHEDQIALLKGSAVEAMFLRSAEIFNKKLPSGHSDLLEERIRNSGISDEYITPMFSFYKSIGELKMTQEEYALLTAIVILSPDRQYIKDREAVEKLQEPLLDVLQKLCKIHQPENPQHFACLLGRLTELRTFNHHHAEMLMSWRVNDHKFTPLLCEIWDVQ

CC=C1C(=O)C[C@H]2[C@@H]3CCC4=CC(=O)CC[C@]4(C)[C@H]3CC[C@]12C [guggulsterone, 4,17(20)-pregnadiene-3,16-dione]
TNF-induced COX2 promoter activity (COX2 promoter): abolished the COX2 promoter activity in a dose-dependent manner
action on bile acid receptor farnesoid X receptor (FXR) ([1]; Urizar et al., 2002, Wu et al.): antagonist
expression of bile acid-activated genes ([1]; Urizar et al., 2002, Cui et al., 2003): decrease the expression of bile acid-activated genes
phosphorylation of GST IκBα by immunoprecipitated IKK (direct inhibition) (IKK): inhibited the phosphorylation of GST IκBα
caspase-induced cleavage of PARP activated by TNF (PARP): enhanced the caspase-induced cleavage of PARP activated by TNF
TNF-induced nuclear translocation of p65, Western blot (p65): abolished the TNF-induced nuclear translocation of p65
TNF-induced nuclear translocation of p65, immunocytochemistry (p65): abrogated the p65 translocation
TNF-induced phosphorylation of p65 (p65; Western blot): suppressed p65 phosphorylation almost completely
constitutively active NF-κB in U266 and MDA 1986 cells (NF-κB): completely inhibited this constitutively active NF-κB
